The text below walks through data of ChEMBL document CHEMBL1212921, “Design, synthesis, enzyme-inhibitory activity, and effect on human cancer cells of a novel series of jumonji domain-containing protein 2 histone demethylase inhibitors” (J Med Chem, 2010).

Molecules are shown by their SMILES. pIC50: −log10 of the molar value. Calls of active or inactive are those of the source. The calls are words filed in the database; no cut-off is given here.

For assay [1], the target named is T1, Lysine-specific demethylase 4C (Homo sapiens, UniProt Q9H3R0).
T1 sequence (Q9H3R0 whole entry): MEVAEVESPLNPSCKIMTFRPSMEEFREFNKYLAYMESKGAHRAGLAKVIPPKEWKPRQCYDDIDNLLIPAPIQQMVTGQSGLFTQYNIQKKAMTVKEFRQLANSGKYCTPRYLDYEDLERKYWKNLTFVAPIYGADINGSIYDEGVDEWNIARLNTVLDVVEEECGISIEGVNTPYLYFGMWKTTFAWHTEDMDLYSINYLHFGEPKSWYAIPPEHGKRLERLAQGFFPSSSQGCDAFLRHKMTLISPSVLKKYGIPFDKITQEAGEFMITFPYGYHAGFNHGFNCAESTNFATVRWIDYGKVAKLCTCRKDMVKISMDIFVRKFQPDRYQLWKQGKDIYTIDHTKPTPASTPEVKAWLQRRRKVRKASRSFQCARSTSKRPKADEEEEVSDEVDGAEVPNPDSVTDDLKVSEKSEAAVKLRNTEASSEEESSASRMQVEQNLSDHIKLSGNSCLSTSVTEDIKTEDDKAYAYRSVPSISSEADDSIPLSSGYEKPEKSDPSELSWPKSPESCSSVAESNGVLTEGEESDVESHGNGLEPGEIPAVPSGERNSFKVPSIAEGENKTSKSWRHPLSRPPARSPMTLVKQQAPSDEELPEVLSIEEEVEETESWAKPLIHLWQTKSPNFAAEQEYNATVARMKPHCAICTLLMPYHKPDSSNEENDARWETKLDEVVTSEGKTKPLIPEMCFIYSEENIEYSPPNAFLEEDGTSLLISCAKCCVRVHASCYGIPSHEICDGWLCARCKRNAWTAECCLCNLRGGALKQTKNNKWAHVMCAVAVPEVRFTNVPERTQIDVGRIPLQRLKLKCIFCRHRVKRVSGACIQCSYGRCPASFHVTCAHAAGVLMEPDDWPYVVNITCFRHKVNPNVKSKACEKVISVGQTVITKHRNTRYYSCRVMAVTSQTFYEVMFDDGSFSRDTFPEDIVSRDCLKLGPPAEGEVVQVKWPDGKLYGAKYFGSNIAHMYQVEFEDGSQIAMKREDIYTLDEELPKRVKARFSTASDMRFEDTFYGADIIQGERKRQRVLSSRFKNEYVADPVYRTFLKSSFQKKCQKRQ
The assay can be described thus: Inhibition of recombinant His-tagged JMJD2C expressed in Escherichia coli Rosetta 2 (DE3) pLysS cells by formaldehyde dehydrogenase-coupled assay.

Assay [2] concerns the target T2, Lysine-specific demethylase 4A (Homo sapiens, UniProt O75164).
T2 sequence (O75164 whole entry): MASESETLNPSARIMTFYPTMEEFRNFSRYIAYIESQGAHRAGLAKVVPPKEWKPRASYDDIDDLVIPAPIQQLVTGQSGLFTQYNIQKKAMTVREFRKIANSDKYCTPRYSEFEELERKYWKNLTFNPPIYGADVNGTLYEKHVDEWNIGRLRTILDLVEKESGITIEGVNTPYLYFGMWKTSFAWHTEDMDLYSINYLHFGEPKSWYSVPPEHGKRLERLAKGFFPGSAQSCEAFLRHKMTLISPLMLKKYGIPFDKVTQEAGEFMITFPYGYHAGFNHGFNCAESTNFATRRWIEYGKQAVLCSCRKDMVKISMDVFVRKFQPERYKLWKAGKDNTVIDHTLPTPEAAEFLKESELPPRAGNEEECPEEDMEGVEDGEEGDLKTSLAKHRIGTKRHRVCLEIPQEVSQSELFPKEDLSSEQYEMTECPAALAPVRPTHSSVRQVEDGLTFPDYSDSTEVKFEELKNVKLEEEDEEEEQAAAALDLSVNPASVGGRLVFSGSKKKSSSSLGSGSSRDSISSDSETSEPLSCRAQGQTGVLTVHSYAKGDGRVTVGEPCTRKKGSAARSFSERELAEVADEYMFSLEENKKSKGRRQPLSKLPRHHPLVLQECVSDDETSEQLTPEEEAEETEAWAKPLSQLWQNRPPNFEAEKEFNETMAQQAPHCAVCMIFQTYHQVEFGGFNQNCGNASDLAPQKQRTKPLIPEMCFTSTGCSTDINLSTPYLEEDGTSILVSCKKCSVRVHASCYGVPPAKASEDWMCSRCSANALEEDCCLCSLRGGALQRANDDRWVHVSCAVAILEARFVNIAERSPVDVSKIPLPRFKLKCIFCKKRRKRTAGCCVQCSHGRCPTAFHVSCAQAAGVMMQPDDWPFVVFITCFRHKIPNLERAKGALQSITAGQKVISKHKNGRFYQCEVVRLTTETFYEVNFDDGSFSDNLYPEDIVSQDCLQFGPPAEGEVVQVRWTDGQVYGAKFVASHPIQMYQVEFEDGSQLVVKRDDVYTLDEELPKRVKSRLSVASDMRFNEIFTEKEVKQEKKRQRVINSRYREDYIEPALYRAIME
The assay can be described thus: Inhibition of recombinant His-tagged JMJD2A expressed in Escherichia coli Rosetta 2 (DE3) pLysS cells by formaldehyde dehydrogenase-coupled assay.

Assay [3] has as its system LNCaP. The assay is described as follows: Cytotoxicity against human LNCAP cells expressing JMJD2C at 100 uM after 72 hrs by Alamar blue assay. The class given is functional, cell-based. (Resazurin is reduced to fluorescent resorufin, in cell work by metabolically active cells.)
Assay [4] relates to LNCaP. The assay is described as follows: Cytotoxicity against human LNCAP cells expressing JMJD2C at 30 uM after 72 hrs by Alamar blue assay. It counts as functional, cell-based.
For assay [5], the system named is PC-3. The assay is described as follows: Cytotoxicity against human PC3 cells at 30 uM after 72 hrs by Alamar blue assay. It counts as functional, cell-based.
Assay [6] has as its system HCT-116. The assay is described as follows: Cytotoxicity against human HCT116 cells at 30 uM after 72 hrs by Alamar blue assay. It counts as functional, cell-based.
Assay [7] has as its system KYSE-150. The assay can be described thus: Cytotoxicity against human KYSE-150 cells at 30 uM after 72 hrs by Alamar blue assay. The class given is functional, cell-based.
Assay [8] relates to LNCaP. The assay is described as follows: Cytotoxicity against human LNCAP cells expressing JMJD2C after 72 hrs by Alamar blue assay. It counts as functional.
Assay [9] has as its target Prolyl hydroxylase EGLN2 (Homo sapiens, UniProt Q96KS0). The assay can be described thus: Inhibition of human recombinant PHD1 expressed in Sf9 cells by time-resolved fluorescence assay.
Assay [10] has as its target Egl nine homolog 1 (Homo sapiens, UniProt Q9GZT9). The assay is described as follows: Inhibition of human recombinant PHD2 expressed in Sf9 cells by time-resolved fluorescence assay.

Sequence of Prolyl hydroxylase EGLN2 (Q96KS0 whole entry): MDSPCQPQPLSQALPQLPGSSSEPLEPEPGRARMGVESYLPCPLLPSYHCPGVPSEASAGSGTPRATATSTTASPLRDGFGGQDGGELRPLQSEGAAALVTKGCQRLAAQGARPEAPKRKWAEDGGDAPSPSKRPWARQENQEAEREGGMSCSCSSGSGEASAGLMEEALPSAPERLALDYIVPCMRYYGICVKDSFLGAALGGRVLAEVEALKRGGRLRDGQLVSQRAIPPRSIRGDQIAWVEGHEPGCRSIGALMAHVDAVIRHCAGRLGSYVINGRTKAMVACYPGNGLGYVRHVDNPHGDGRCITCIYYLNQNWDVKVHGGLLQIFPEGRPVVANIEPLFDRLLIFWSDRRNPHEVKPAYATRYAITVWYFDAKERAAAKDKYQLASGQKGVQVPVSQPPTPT
Sequence of Egl nine homolog 1 (Q9GZT9 whole entry): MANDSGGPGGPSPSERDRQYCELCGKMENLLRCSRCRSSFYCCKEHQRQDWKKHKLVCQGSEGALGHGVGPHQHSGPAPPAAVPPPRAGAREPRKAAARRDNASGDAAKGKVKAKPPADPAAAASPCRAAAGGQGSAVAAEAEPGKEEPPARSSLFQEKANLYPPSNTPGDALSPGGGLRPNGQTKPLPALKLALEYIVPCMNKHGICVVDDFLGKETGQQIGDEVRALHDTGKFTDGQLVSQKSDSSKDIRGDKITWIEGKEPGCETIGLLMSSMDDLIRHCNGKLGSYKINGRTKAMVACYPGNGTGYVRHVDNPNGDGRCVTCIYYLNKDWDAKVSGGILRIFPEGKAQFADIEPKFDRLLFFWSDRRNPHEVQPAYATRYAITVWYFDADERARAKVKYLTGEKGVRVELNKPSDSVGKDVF

A word on the pIC50: it is −log10 of the IC50, conventionally taken in molar units. As to `CN(CCCCCCCCC(=O)N(O)CCC(=O)O)Cc1ccccc1`, the values for the pIC50 in assay [1] and in [2] were 5.89 and 5.70, respectively.

As to `COC(=O)CCN(O)C(=O)CCCCCCCCN(C)C`, the result in assay [3], in assay [4], in [5], in assay [6] and in [7] was inactive.

For `CNCCCCCCCCC(=O)N(O)CCC(=O)O`, the pIC50 in assay [1] is 5.77; in assay [2], 5.36.

Turning to `CN(C)CCCCCC(=O)N(O)CCC(=O)O`, the pIC50 in assay [1] was 5.00; in [2], 4.77.

By GI50 is commonly meant the concentration giving 50% growth inhibition. Higher therefore signals lower sensitivity of the cells. In the case of `N[C@@H]1C[C@H]1c1ccc(OCC[C@H](NC(=O)c2ccccc2)C(=O)NCc2ccccc2)cc1`, halving of growth in assay [8] (GI50) required 36 µM.

Consider `CN(C)CCCCCCC(=O)N(O)CCC(=O)O`, for which the values for the pIC50 in assay [1] and in assay [2] were 5.57 and 5.06, respectively.

In the case of `O=C(O)c1ccnc(C(=O)O)c1`, the pIC50 in assay [9] was 5.82.

Regarding `COC(=O)c1ccnc(C(=O)OC)c1`, the outcome in [3], in assay [4], in assay [5] and in assay [6] was inactive.

As to `CC(=O)N(O)CCC(=O)O`, the pIC50 is 4.47 in assay [1], 4.85 in assay [2], less than 4.00 in assay [9] (read-out: IC50) and less than 4.00 in assay [10].

In the case of `CN(C)CCCCCCCCN(O)C(=O)CCC(=O)O`, the pIC50 was 5.70 in [1], 5.09 in [2], less than 4.00 in assay [9] (read-out: IC50) and less than 4.00 in assay [10].

`CCCCN(C)CCCCCCCCC(=O)N(O)CCC(=O)O`: the pIC50 in assay [2] was 5.49; in assay [9] (read-out: IC50), less than 4.00; in assay [10], less than 4.00.

As for `CN(C)CCCCCCCCCCCC(=O)N(O)CCC(=O)O`, the pIC50 in [1] is 5.06; in assay [2], 4.66.

Consider `CC(C)CCCCCC(=O)N(O)CCC(=O)O`, for which the figures for the pIC50 in assay [1] and in assay [2] were 4.13 and 3.92, respectively.

Consider `CN(C)CCCCCCCC(=O)N(O)CCC(=O)O`, for which the pIC50 in [1] was 5.82; in assay [2], 5.22; in assay [9] (read-out: IC50) it was less than 4.00; in [10] it was less than 4.00.

Turning to `CN(C)CCCCCCCCC(=O)N(O)CCC(=O)O`, the pIC50 in [1] is 6.00; in [2], 5.52; in [9] (read-out: IC50), less than 4.00; in [10], less than 4.00. Moreover, the outcome in assay [3] and in assay [4] was inactive.

Regarding `O=C(O)CNC(=O)C(=O)O` [N-OXALYLGLYCINE], the negative logarithm of the IC50 (pIC50) in [1] was 3.30; in assay [2] it was 3.60; in assay [9] (read-out: IC50), 5.68.

As to `CN(C)CCCCCCCCCC(=O)N(O)CCC(=O)O`, the pIC50 in assay [1] is 5.80; in [2] it was 5.26; in assay [9] (read-out: IC50), less than 4.00; in assay [10] it was less than 4.00.

Take `CN(C)CCCCCCCCCCC(=O)N(O)CCC(=O)O`: the pIC50 is 5.28 in assay [1] and 4.96 in [2].
